Counter-ions that a name gives are not always drawn. Values belong to the molecule of their own block, whether it stands above or below them.
Tests used:
MV4;11 cells = test: intravenous MV4;11 leukemia model in NOD-SCID mice; assay type: in vivo; details: for large infiltrating cells with mitotic figures in bone marrow: H&E-stained sections; for large infiltrating cells with mitotic figures in bone marrow / CD45 positive cells in bone marrow: oral 50-200 mg/kg; for CD45 positive cells in bone marrow: flow cytometry; for survival: oral, 50-200 mg/kg, once daily or 3 times per week
Protocol: In a subset of animals, bone marrow cell suspensions are prepared by flushing mouse femurs with cold sterile PBS, at experimental timepoints (within 90 days of implantation).

[1] = test system: Mouse endothelial cells from pancreas; test: sensitivity of pancreas endothelial cells to Taxotere cytotoxicity; assay type: cell-based; details: with Taxotere; for sensitivity of endothelial cells to cytotoxicity mediated by Taxotere: cells at 33° C.
Protocol: Mouse endothelial cells from pancreas are maintained in culture at a temperature 33° C. where they are actively dividing.

L3.6 pL pancreatic tumor = test: orthotopic human pancreatic cancer L3.6 pL in nude mice; assay type: in vivo; details: combination with Taxotere; for survival rate: 4-6 weeks; for effect of the combination in cancer refractory to chemotherapy: tumor cells resistant to Taxotere (MDR cells)
Protocol: A pancreatic tumor which is shown to upregulate expression of PDGF AA, BB, A/B at metastatic sites is used for the in vivo studies. Other tumor systems that are known to upregulate expression of PDGF may also be used such as ovarian cancer, prostate cancer, bone metastasis, or breast cancer bone metastasis.
Tumor cells L3.6 pL derived from pancreatic cancer are injected into the pancreas of nude mice. The tumors are grown into detectable lesions.
Two days later, the mice are killed and the organs with and without tumors harvested, fixed, and immunostained to evaluate expression of PDGF AA, BB, A/B, PDGF-R (α,β) and status of phosphorylation of PDGF-R (α,β) on tumor cells and organ-specific endothelial cells.
The surviving mice are then killed and the size of tumor and metastasis is measured. Fixation of the tissues and staining of the tumor cells are performed. Endothelial cells are examined for division (PCNA), apoptosis (TUNEL), CD31 (endothelial cells). Expression of PDGF AA, BB, A/B, and phosphorylation of PDGF-Rα/β are further studied in these endothelial cells.

Lck = target: T1, Lck (Homo sapiens, UniProt P06239); details: literature; cited from earlier work
T1 construct: host or cells: baculovirus system

FYN = FYN (Homo sapiens, UniProt P06241); details: literature; cited from earlier work
[2] = test system: blastic phase chronic myelogenous leukemia (CML); details: two trials, total of 304 patients; cited from earlier work
accelerated phase CML = details: at 24 months; cited from earlier work
[3] = test system: RS4-11 cells (FLT3-wild type); test: RS4-11 cell growth, luminescence assay at 72 hours; assay type: cell-based, human; details: with or without 100 ng/mL FLT3 ligand, FIGS. 5 and 6
[4] = test system: AML193 cells (wild type FLT3); test: AML193 cell growth, luminescence assay at 72 hours; details: with or without 100 ng/mL FLT3 ligand, GN963 at concentrations used (30 μM), FIGS. 3 and 4

Sequence of FYN (P06241 whole entry, species assumed): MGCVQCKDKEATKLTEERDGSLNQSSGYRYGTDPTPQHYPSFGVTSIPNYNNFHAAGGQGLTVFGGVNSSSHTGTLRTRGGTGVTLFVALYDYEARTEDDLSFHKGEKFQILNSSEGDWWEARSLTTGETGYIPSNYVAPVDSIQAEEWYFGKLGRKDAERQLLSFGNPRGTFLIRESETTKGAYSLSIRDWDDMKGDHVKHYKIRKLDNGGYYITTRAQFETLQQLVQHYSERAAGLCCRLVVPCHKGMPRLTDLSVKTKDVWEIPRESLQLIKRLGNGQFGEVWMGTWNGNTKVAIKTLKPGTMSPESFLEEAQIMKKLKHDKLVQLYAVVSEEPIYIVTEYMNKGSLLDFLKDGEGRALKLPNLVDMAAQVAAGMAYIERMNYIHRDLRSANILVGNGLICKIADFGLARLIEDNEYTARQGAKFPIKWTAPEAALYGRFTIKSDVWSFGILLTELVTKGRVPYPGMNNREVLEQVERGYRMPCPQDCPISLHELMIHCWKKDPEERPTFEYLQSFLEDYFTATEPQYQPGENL
T1 sequence (P06239 whole entry): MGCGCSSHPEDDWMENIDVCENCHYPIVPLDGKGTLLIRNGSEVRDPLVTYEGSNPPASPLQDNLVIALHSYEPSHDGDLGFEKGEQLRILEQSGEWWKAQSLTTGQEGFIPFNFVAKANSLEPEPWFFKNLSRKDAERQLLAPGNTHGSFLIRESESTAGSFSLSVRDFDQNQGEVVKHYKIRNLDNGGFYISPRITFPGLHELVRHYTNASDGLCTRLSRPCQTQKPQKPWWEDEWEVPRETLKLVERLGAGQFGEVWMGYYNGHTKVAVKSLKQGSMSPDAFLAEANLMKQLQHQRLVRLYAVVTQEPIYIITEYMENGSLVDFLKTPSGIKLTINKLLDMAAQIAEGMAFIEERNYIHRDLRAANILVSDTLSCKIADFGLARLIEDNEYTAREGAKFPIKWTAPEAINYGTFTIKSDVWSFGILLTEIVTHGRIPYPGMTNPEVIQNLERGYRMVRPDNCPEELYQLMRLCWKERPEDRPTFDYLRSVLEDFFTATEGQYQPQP

Compound: COc1cc2ncc(N[C@@H]3CC[C@@H](O)[C@H](C)C3)nc2cc1OC (stereo in doubt) [GN271, (1R,2R,4R)-4-(6,7-dimethoxy-quinoxalin-2-ylamino)-2-methyl-cyclohexanol]
- large infiltrating cells with mitotic figures in bone marrow (MV4;11 cells): reduced numbers of large infiltrating cells with mitotic figures
- CD45 positive cells in bone marrow (MV4;11 cells): reduced numbers of CD45 positive cells
- survival (MV4;11 cells): prolonged survival
- resistance of organ-specific endothelial cells to Taxotere increased by pancreatic tumor-conditioned medium [1]: reversal of this increased resistance
- sensitivity of endothelial cells to cytotoxicity mediated by Taxotere [1]: increases sensitivity of endothelial cells to cytotoxicity mediated by Taxotere
- survival rate (L3.6 pL pancreatic tumor): higher survival rate
- effect of the combination in cancer refractory to chemotherapy (L3.6 pL pancreatic tumor): synergistic effect

- melting point: 194 to 196 °C
Compound: COc1cc2ncc(NC3CCCCC3)nc2cc1N1CCOCC1 [Example 10, Cyclohexyl-(6-methoxy-7-morpholin-4-yl-quinoxalin-2-yl)-amine]

- melting point: 75 to 78 °C
Compound: COc1cc2ncc(OC3CCCCC3)nc2cc1OC1CCCCC1 [Example 6, 2,7-Bis-cyclohexyloxy-6-methoxy-quinoxaline]

- melting point: 173 to 175 °C
Compound: c1ccc(Nc2cnc3cc(O[C@@H]4CCOC4)ccc3n2)cc1 [Example 5, Phenyl-[6-(tetrahydrofuran-3-(R)-yl-oxy)quinoxalin-2-yl]amine]

Compound: Cc1ccc(-c2nn(C(C)(C)C)c3ncnc(N)c23)cc1 [PP1]
- LCK inhibitory potency (Lck): low nanomolar potency
- FYN inhibitory potency (FYN): low nanomolar potency

- melting point: 185 to 190 °C (dec.)
Compound: COc1cc2ncc(CNC3CCCCC3)nc2cc1OC (as salt: HCl) [Example 7, Cyclohexyl-(6,7-dimethoxyquinoxalin-2-ylmethyl)-amine]

- melting point: 211 to 213 °C
Compound: Oc1ccc2nc(Nc3ccccc3)cnc2c1 [Example 4, 2-Anilino-6-quinoxalinol]

Compound: Cc1ccc(NC(=O)c2ccc(CN3CCN(C)CC3)cc2)cc1Nc1nccc(-c2cccnc2)n1 [Gleevec, imatinib mesylate]
- estimated 1-year survival [2]: under 35%
- major cytogenetic response rate [2]: 16%
- incidence of disease progression (accelerated phase CML): 50%

Compound: CN[C@@H]1C[C@H]2O[C@@](C)([C@@H]1OC)n1c3ccccc3c3c4c(c5c6ccccc6n2c5c31)C(=O)NC4 [staurosporine, reference compound]
- effect on RS4-11 cell growth [3]: inhibits RS4-11 cell growth
- effect on AML193 cell growth [4]: inhibits AML193 cell growth

- melting point: 170 to 173.5 °C
Compound: COc1cc2cc(NCC(C)(C)CO)cnc2cc1OC [Example 9, 3-(6,7-Dimethoxyquinolin-3-yl-amino)-2,2-dimethyl-propan-1-ol]

Compound: COc1cc2ncc(N[C@@H]3C[C@@H]4C[C@H]3C[C@H]4O)nc2cc1OC [GN804, (1S,2R,4S,5R)-5-(6,7-Dimethoxyquinoxalin-2-ylamino)-Bicyclo[2.2.1]heptan-2-ol]
- large infiltrating cells with mitotic figures in bone marrow (MV4;11 cells): reduced numbers of large infiltrating cells with mitotic figures
- CD45 positive cells in bone marrow (MV4;11 cells): reduced numbers of CD45 positive cells
- survival (MV4;11 cells): prolonged survival
- resistance of organ-specific endothelial cells to Taxotere increased by pancreatic tumor-conditioned medium [1]: reversal of this increased resistance
- sensitivity of endothelial cells to cytotoxicity mediated by Taxotere [1]: increases sensitivity of endothelial cells to cytotoxicity mediated by Taxotere
- survival rate (L3.6 pL pancreatic tumor): higher survival rate
- effect of the combination in cancer refractory to chemotherapy (L3.6 pL pancreatic tumor): synergistic effect

- melting point: 152 to 155 °C
Compound: COc1cc2ncc(OC3CCC(OC(=O)N(C)C)CC3)nc2cc1OC (centres unmarked) [Example 19, Dimethyl-carbamic acid 4-(6,7-dimethoxyquinoxalin-2-yloxy)-cyclohexyl ester]

- melting point: 205 to 210 °C (dec.)
Compound: CC(C)Oc1ccc2nc(Nc3ccccc3)cnc2c1.Cl

- melting point: 85 to 88 °C
Compound: COc1cc2ncc(OC3CC4CC3C(O)C4O)nc2cc1OC (centres unmarked) [Example 17, 5-(6,7-Dimethoxyquinoxalin-2-yloxy)-bicyclo [2.2.1]heptane-2,3-diol]

- melting point: 184 to 186 °C
Compound: COc1cc2ncc(N[C@@H]3C[C@H]4CC[C@@H]3C4)nc2cc1OC [Example 25, (1R,2R,4S)-(+)-Bicyclo[2.2.1]hept-2-yl-(6,7-dimethoxyquinoxalin-2-yl)-amine]

- melting point: 176 to 177 °C
Compound: COc1cc2ncc(N[C@H]3CC[C@H](OC(C)=O)CC3)nc2cc1OC [Example 21, Acetic acid trans-4-(6,7-dimethoxyquinoxalin-2-ylamino)-cyclohexyl ester]

Reference: patent US20070197538A1, “Anti-vascular and anti-proliferation methods, therapies, and combinations employing specific tyrosine kinase inhibitors” (priority 2004, published 2007)
